Measurements published in the supplement of paper PMC10307832.

Columns and labels:
Assay in all cases: relative viability (nuclei count vs DMSO), 5 days (fraction); higher = more cells survive
[1] = compound: C1=CC2=NC=CN=C2C=C1/C=C/3\C(=O)NC(=O)S3 + N=C(N)NC(=N)NCCc1ccccc1 [Phenformin] (partner 250 µM)
How it was run: (§1)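 After 5 days of treatment, lung cancer cells in 1536-well plates were fixed and stained in a single step (final 0.05% Triton X-100, 1% formaldehyde, 1 ug/ml Hoechst) and their nuclei counted on 4× images. Treatment had been applied by pin tool the day after seeding as one drug alone or as a fixed anchor-drug dose with five library-drug doses (not always all listed) in √10 steps. Relative viability is the nuclei count of treated wells divided by that of vehicle wells, and values are medians of duplicate plates.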

BGJ398 + Trametinib = compound: CCN1CCN(c2ccc(Nc3cc(N(C)C(=O)Nc4c(Cl)c(OC)cc(OC)c4Cl)ncn3)cc2)CC1 [BGJ398] + CC(=O)Nc1cccc(-n2c(=O)n(C3CC3)c(=O)c3c(Nc4ccc(I)cc4F)n(C)c(=O)c(C)c32)c1 [Trametinib] (partner 0.02 µM)
How it was run: as §1

BGJ398 + Pictilisib = compound: CCN1CCN(c2ccc(Nc3cc(N(C)C(=O)Nc4c(Cl)c(OC)cc(OC)c4Cl)ncn3)cc2)CC1 [BGJ398] + CS(=O)(=O)N1CCN(Cc2cc3nc(-c4cccc5[nH]ncc45)nc(N4CCOCC4)c3s2)CC1 [Pictilisib] (partner 1 µM)
How it was run: as §1

BGJ398 + Vorinostat = compound: CCN1CCN(c2ccc(Nc3cc(N(C)C(=O)Nc4c(Cl)c(OC)cc(OC)c4Cl)ncn3)cc2)CC1 [BGJ398] + O=C(CCCCCCC(=O)Nc1ccccc1)NO [Vorinostat] (partner 1 µM)
How it was run: as §1

Cell Line | relative viability ([1]; first compound 0.02 µM) | relative viability ([1]; first compound 0.2 µM) | relative viability ([1]; first compound 0.6325 µM) | relative viability ([1]; first compound 2 µM) | relative viability (BGJ398 + Trametinib; first compound 0.01 µM) | relative viability (BGJ398 + Trametinib; first compound 0.03162 µM) | relative viability (BGJ398 + Trametinib; first compound 0.1 µM) | relative viability (BGJ398 + Trametinib; first compound 0.3162 µM) | relative viability (BGJ398 + Trametinib; first compound 1 µM) | relative viability (BGJ398 + Pictilisib; first compound 0.01 µM) | relative viability (BGJ398 + Pictilisib; first compound 0.03162 µM) | relative viability (BGJ398 + Pictilisib; first compound 0.1 µM) | relative viability (BGJ398 + Pictilisib; first compound 0.3162 µM) | relative viability (BGJ398 + Pictilisib; first compound 1 µM) | relative viability (BGJ398 + Vorinostat; first compound 0.01 µM) | relative viability (BGJ398 + Vorinostat; first compound 0.03162 µM) | relative viability (BGJ398 + Vorinostat; first compound 0.1 µM) | relative viability (BGJ398 + Vorinostat; first compound 0.3162 µM) | relative viability (BGJ398 + Vorinostat; first compound 1 µM) | relative viability ([1]; first compound 0.06325 µM)
HCC-366 | 0.609 | 0.632 | 0.612 | 0.575 | 0.309 | 0.375 | 0.387 | 0.311 | 0.325 | 0.0862 | 0.146 | 0.137 | 0.277 | 0.0758 | 0.337 | 0.385 | 0.371 | 0.391 | 0.255 | 
HCC-827 | 0.481 | 0.41 | 0.427 | 0.455 | 0.482 |  | 0.542 | 0.399 | 0.623 | 0.961 | 0.696 | 0.977 | 0.817 | 1.03 | 0.763 |  | 0.87 | 0.358 | 0.81 | 0.372
HOP-62 | 0.549 | 0.695 | 0.646 | 0.622 | 0.395 | 0.364 | 0.359 | 0.291 | 0.288 | 0.731 | 0.768 | 0.649 | 1.16 | 0.669 | 0.694 | 0.618 | 0.626 | 0.575 | 0.602 | 0.643
IA-LM |  |  |  |  |  |  |  |  |  | 0.343 | 0.39 | 0.334 | 0.391 | 0.311 | 0.797 | 0.806 | 1.09 | 0.972 | 0.894 | 
LC-2-ad | 0.61 | 0.655 | 0.578 | 0.417 | 0.912 | 0.935 | 0.892 | 0.873 | 0.985 | 0.547 | 0.492 | 0.467 | 0.419 | 0.392 | 0.708 | 0.76 | 0.742 | 0.687 | 0.703 | 0.601
LCLC-97TM1 | 0.389 | 0.423 | 0.432 | 0.162 | 0.185 | 0.205 | 0.215 | 0.21 | 0.218 | 0.186 | 0.189 | 0.207 | 0.298 | 0.163 | 0.533 | 0.691 | 0.743 | 0.781 | 0.753 | 0.374
LCLC-103H | 0.325 | 0.351 | 0.354 | 0.25 | 0.703 | 0.623 | 0.65 | 0.642 | 0.535 | 0.652 | 0.576 | 0.486 | 0.52 | 0.465 | 0.769 | 0.784 | 0.68 | 0.697 | 0.602 | 0.322
LK-2 | 0.615 | 0.488 | 0.368 | 0.195 | 0.788 | 0.726 | 0.561 | 0.32 | 0.268 | 0.555 | 0.529 | 0.326 | 0.235 | 0.245 | 0.296 | 0.334 | 0.247 | 0.225 | 0.207 | 0.603
LOU-NH91 | 0.712 | 0.569 | 0.703 | 0.564 | 0.718 | 0.689 | 0.779 | 0.705 | 0.759 | 0.515 | 0.524 | 0.52 | 0.484 | 0.453 | 0.896 | 0.896 | 0.957 | 0.748 | 0.883 | 0.72
LU99A | 0.799 | 0.862 | 0.926 | 0.625 | 0.461 | 0.487 | 0.498 | 0.401 | 0.401 | 0.281 | 0.314 | 0.302 | 0.307 | 0.261 | 0.472 | 0.437 | 0.542 | 0.451 | 0.486 | 0.814
LXF-289 | 0.491 | 0.535 | 0.526 | 0.478 | 0.567 | 0.649 | 0.672 | 0.563 | 0.593 | 0.773 | 0.707 | 0.682 | 0.685 | 0.573 | 0.746 | 0.666 | 0.769 | 0.608 | 0.73 | 0.501
NCI-H23 | 0.79 | 0.825 | 0.781 | 0.729 | 0.348 | 0.438 | 0.441 | 0.377 | 0.322 | 0.545 | 0.487 | 0.477 | 0.461 | 0.411 | 0.611 | 0.668 | 0.722 | 0.53 | 0.557 | 0.716
NCI-H522 | 0.65 | 0.666 | 0.564 | 0.579 | 0.743 | 0.797 | 0.709 | 0.644 | 0.736 |  |  |  |  |  | 0.926 | 0.802 | 0.935 | 1.01 | 0.888 | 0.608
NCI-H1299 |  |  |  |  |  |  |  |  |  | 0.742 | 0.807 | 0.847 | 0.827 | 0.965 |  |  |  |  |  | 
NCI-H1563 | 0.667 | 0.657 | 0.648 | 0.663 |  |  |  |  |  | 0.66 | 0.612 | 0.512 | 0.479 | 0.475 |  |  |  |  |  | 0.674
NCI-H1648 |  |  |  |  | 0.411 |  | 0.474 | 0.393 | 0.417 |  |  |  |  |  | 1.6 |  | 0.363 | 0.46 | 0.369 | 
NCI-H1703 |  |  |  |  |  |  |  |  |  | 0.233 | 0.198 | 0.21 | 0.218 | 0.242 |  |  |  |  |  | 
NCI-H1792 | 0.351 | 0.465 | 0.341 | 0.113 | 0.359 | 0.361 | 0.342 | 0.215 | 0.17 | 0.229 | 0.32 | 0.26 | 0.238 | 0.138 |  |  |  |  |  | 0.177
NCI-H2342 | 0.486 | 0.739 | 0.565 | 0.526 | 1.04 | 0.906 | 0.893 | 1.03 | 0.978 |  |  |  |  |  | 0.845 | 0.703 | 0.959 | 0.711 | 0.801 | 0.577
SW 900 | 0.675 | 0.702 | 0.4 | 0.551 | 0.723 | 0.679 | 0.655 | 0.735 | 0.568 |  |  |  |  |  | 0.534 | 0.425 | 0.562 | 0.261 | 0.24 | 0.601
